The molecules below were run against α5-GABAA receptor (Homo sapiens (Human), UniProt P18507+P31644) (assay: Whole-cell patch clamp electrophysiology, inverse regulation activity in α5β3γ2-HEK293 cells). Conditions: compound 100 nM; GABA 0.05-0.06 μM (about EC7-8); clamped at −60 mV; read-out: Inverse regulation efficiency to α5-GABAA receptor.
Assay type: cell-based
Summary of the method: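 HEK293 cells expressing α5β3γ2 recorded whole-cell at −60 mV holding potential, GABA 0.05-0.06 μM (about EC7-8) applied, then compound at 100 nM final with GABA. pH 7.4 extracellular, CsCl-based pipette solution. Inverse regulation efficiency = (Itreatment−Igaba)/(Igaba−Iprebaseline)×100%.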

Chain of α5-GABAA receptor (P31644 32-462): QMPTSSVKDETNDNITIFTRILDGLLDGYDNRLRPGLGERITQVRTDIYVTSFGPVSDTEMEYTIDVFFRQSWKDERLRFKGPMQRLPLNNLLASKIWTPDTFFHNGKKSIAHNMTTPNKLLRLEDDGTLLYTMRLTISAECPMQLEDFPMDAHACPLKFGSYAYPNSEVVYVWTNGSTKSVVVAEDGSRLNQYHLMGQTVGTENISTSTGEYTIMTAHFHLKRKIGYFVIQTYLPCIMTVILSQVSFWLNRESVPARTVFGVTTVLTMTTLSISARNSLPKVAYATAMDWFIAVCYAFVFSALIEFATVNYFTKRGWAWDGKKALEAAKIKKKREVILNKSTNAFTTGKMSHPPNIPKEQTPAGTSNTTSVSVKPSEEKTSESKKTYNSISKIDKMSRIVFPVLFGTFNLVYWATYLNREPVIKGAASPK
Chain of α5-GABAA receptor (P28472 26-473 partner): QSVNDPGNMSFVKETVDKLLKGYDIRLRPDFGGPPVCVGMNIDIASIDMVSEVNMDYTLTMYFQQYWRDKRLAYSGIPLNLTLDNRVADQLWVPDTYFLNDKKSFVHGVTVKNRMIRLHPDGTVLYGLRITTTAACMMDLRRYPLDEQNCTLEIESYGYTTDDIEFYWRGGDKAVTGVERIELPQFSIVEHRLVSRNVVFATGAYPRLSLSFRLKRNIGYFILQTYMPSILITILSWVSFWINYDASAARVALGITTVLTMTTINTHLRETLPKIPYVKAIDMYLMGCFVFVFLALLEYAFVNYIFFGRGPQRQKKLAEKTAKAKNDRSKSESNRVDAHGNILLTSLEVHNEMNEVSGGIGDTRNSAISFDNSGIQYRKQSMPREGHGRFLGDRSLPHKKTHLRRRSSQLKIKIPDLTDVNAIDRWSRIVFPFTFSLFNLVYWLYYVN
Chain of α5-GABAA receptor (P18507 other isoform, or with tags, fused parts or gaps): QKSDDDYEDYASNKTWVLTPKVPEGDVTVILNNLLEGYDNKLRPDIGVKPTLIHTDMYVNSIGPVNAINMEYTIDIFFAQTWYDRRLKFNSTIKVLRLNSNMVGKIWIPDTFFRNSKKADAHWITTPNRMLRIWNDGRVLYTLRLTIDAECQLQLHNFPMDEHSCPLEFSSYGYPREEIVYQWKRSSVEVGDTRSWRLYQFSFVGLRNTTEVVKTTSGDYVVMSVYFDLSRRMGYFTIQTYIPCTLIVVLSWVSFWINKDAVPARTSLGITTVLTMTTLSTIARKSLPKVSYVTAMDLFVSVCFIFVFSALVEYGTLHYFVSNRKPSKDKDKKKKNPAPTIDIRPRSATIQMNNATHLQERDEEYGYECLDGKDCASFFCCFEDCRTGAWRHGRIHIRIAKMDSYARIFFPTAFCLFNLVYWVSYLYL

Structure (SMILES) | inhibition at 0.1 µM [%]
Cc1onc(-c2ccc(F)cc2)c1COc1ccc(-c2nnc3n2CCS(=O)(=O)C3)cn1 [Compound 7, 3-(6-((3-(4-fluorophenyl)-5-methylisoxazol-4-yl)methoxy)pyridin-3-yl)-5,6-dihydro-8H-[1,2,4]triazolo[3,4-c][1,4]thiazine 7,7-dioxide] | 37
Cc1onc(-c2ccc(F)cc2)c1COc1ccc(N2CCN3CCNC(=O)C3C2)nn1 (centres unmarked) [Compound 10, 8-(6-((3-(4-fluorophenyl)-5-methylisoxazol-4-yl)methoxy)pyridazin-3-yl) hexahydro-2H-pyrazino[1,2-a]pyrazin-1 (6H)-one] | 66
Cc1onc(-c2ccc(F)cc2)c1COc1ccc(-c2nnc3n2CCOC3)cn1 [Compound 17, 3-(6-((3-(4-fluorophenyl)-5-methylisoxazol-4-yl)methoxy)pyridin-3-yl)-5,6-dihydro-8H-[1,2,4]triazolo[3,4-c][1,4]oxazine] | 49
Cc1onc(-c2ccc(F)cc2)c1COc1ccc(-c2nnc3n2CCOC3)nn1 [Compound 18, 3-(6-((3-(4-fluorophenyl)-5-methylisoxazol-4-yl)methoxy)pyridazin-3-yl)-5,6-dihydro-8H-[1,2,4]triazolo[3,4-c][1,4]oxazine] | 57
Cc1onc(-c2ccc(F)cc2)c1COc1cnc(-c2nnc3n2CCOC3)cn1 [Compound 19, 3-(5-((3-(4-fluorophenyl)-5-methylisoxazol-4-yl)methoxy)pyrazin-2-yl)-5,6-dihydro-8H-[1,2,4]triazolo[3,4-c][1,4]oxazine] | 54
Cc1onc(-c2ccc(F)cc2)c1COc1cnc(-c2nnc3n2CCC3)cn1 [Compound 23, 4-(((5-(6,7-dihydro-5H-pyrrolo[2,1-c][1,2,4]triazol-3-yl)pyrazin-2-yl)oxy)methyl)-3-(4-fluorophenyl)-5-methylisoxazole] | 45
Cc1onc(-c2ccc(F)cc2)c1COc1cnc(-c2nnc3n2CCCOC3)cn1 [Compound 24, 3-(5-((3-(4-fluorophenyl)-5-methylisoxazol-4-yl)methoxy)pyrazin-2-yl)-6,7-dihydro-5H,9H-[1,2,4]triazolo[3,4-c][1,4]oxazepane] | 44
Cc1onc(-c2ccc(F)cc2)c1COc1cnc(-c2nnc3n2CCOCC3)cn1 [Compound 33, 3-(5-((3-(4-fluorophenyl)-5-methylisoxazol-4-yl)methoxy)pyrazin-2-yl)-5,6,8,9-tetrahydro-[1,2,4]triazolo[4,3-d][1,4]oxazepane] | 48
Cc1onc(-c2ccc(F)cc2)c1COc1ccc(N2CCn3ccnc3C2=O)nn1 [Compound 37, 7-(6-((3-(4-fluorophenyl)-5-methylisoxazol-4-yl)methoxy)pyridazin-3-yl)-6,7-dihydroimidazo[1,2-a]pyrazin-8(5H)-one] | 54
Cc1onc(-c2ccc(F)cc2)c1COc1ccc(-c2cc3n(c(=O)n2)C[C@]24CO[C@H](CN32)C4)cn1 [Compound 38] | 56
Cc1onc(-c2ccc(F)cc2)c1COc1ccc(-c2cc3n(c(=O)n2)CCN3C)cn1 [Compound 41, 7-(6-((3-(4-fluorophenyl)-5-methylisoxazol-4-yl)methoxy)pyridin-3-yl)-1-methyl-2,3-dihydroimidazo[1,2-c]pyrimidin-5(1H)-one] | 47

From patent US20250215016A1, “ISOXAZOLE-HETEROCYCLIC DERIVATIVE, PHARMACEUTICAL COMPOSITION AND USE” (SHANGHAI SIMR BIOTECHNOLOGY CO., LTD, priority 2022, published 2025)
